In brackets after ≈: the same amount, converted by molar mass. Each block holds one compound with its values, some of them ahead of it.
Tests used:
[1] = Inhibition of NDM1 (unknown origin) using nitrocefin as substrate incubated for 10 mins by UV spectra analysis; set-up: species or system Bacteria
[2] = system: Escherichia coli; assay: Antibacterial activity against Escherichia coli harboring beta-lactamase infected in mouse relative to control; format: functional
[3] = Inhibition of AmpC beta-lactamase (unknown origin) by Cheng-Prusoff equation analysis; set-up: species or system Bacteria
[4] = system: Enterobacteriaceae; assay: Inhibition of OXA-181 in Enterobacteriaceae assessed as potentiation of imipenem-induced antibacterial activity by CLSI based agar dilution method
[5] = system: Enterobacteriaceae; assay: Inhibition of OXA-181 in Enterobacteriaceae assessed as potentiation of meropenem-induced antibacterial activity by CLSI based agar dilution method
[6] = system: Enterobacteriaceae; assay: Inhibition of Beta-lactamase KPC in Enterobacteriaceae assessed as potentiation of imipenem-induced antibacterial activity by CLSI based agar dilution method
[7] = system: Enterobacteriaceae; assay: Inhibition of Beta-lactamase KPC in Enterobacteriaceae assessed as potentiation of meropenem-induced antibacterial activity by CLSI based agar dilution method
[8] = system: Enterobacteriaceae; assay: Inhibition of Beta-lactamase OXA-48 in Enterobacteriaceae assessed as potentiation of meropenem-induced antibacterial activity by CLSI based agar dilution method
[9] = system: Enterobacteriaceae; assay: Inhibition of Beta-lactamase OXA-48 in Enterobacteriaceae assessed as potentiation of imipenem-induced antibacterial activity by CLSI based agar dilution method
[10] = system: Klebsiella pneumoniae; assay: Antibacterial activity against Klebsiella pneumoniae by CLSI based microdilution method
[11] = system: Escherichia coli; assay: Antibacterial activity against Escherichia coli by CLSI based microdilution method
[12] = system: Staphylococcus; assay: Antibacterial activity against methicillin-sensitive Staphylococcus; format: functional
[13] = system: Pseudomonas aeruginosa; assay: Antibacterial activity against Pseudomonas aeruginosa haboring AmpC assessed as reduction in microbial growth by CLSI based broth microdilution method; format: functional
[14] = system: Pseudomonas aeruginosa; assay: Antibacterial activity against Pseudomonas aeruginosa haboring OXA-24/40 assessed as reduction in microbial growth by CLSI based broth microdilution method; format: functional
[15] = system: Pseudomonas aeruginosa; assay: Antibacterial activity against Pseudomonas aeruginosa haboring KPC-2 assessed as reduction in microbial growth by CLSI based broth microdilution method; format: functional
[16] = system: Klebsiella pneumoniae; assay: Potentiation of cefepime-induced antibacterial activity against Klebsiella pneumoniae at 8 ug/ml by CLSI based microdilution method; format: functional
[17] = system: Escherichia coli; assay: Potentiation of cefepime-induced antibacterial activity against Escherichia coli at 8 ug/ml by CLSI based microdilution method; format: functional
[18] = system: Acinetobacter baumannii; assay: Inhibition of OXA-24/40 in Acinetobacter baumannii assessed as potentiation of meropenem-induced antibacterial activity by CLSI based broth microdilution method
[19] = system: Acinetobacter baumannii; assay: Inhibition of OXA-24/40 in Acinetobacter baumannii assessed as potentiation of imipenem-induced antibacterial activity by CLSI based broth microdilution method
[20] = target: Beta-lactamase TEM (Escherichia coli, UniProt P62593); assay: Inhibition of Escherichia coli TEM-1 beta-lactamase
[21] = system: Pseudomonas aeruginosa; assay: Inhibition of Pseudomonas aeruginosa KPC-2 assessed as potentiation of piperacillin-induced antibacterial activity at 4 ug/ml by CLSI based broth microdilution method (reference value: > […] ug/ml)
[22] = system: Pseudomonas aeruginosa; assay: Inhibition of Pseudomonas aeruginosa AmpC assessed as potentiation of piperacillin-induced antibacterial activity at 4 ug/ml by CLSI based broth microdilution method (reference value: > […] ug/ml)
[23] = system: Escherichia coli; assay: Inhibition of Escherichia coli PBP2 assessed as ratio of Kinact to Ki by SDS-PAGE based fluorescence assay
[24] = system: Acinetobacter baumannii; assay: Inhibition of Acinetobacter baumannii PBP2 assessed as ratio of Kinact to Ki by SDS-PAGE based fluorescence assay
[25] = system: Pseudomonas aeruginosa; assay: Inhibition of Pseudomonas aeruginosa OXA-24/40 assessed as potentiation of piperacillin-induced antibacterial activity at 4 ug/ml by CLSI based broth microdilution method (reference value: > […] ug/ml)
[26] = system: Acinetobacter baumannii; assay: Antibacterial activity against Acinetobacter baumannii JC12/04 clinical isolate harboring OXA-24/40 infected in BALB/c mouse pneumonia model assessed as reduction in bacterial burden by measuring bacterial growth at 50 mg,kg, im after 22 hrs co-treatment with imipenem; format: functional
[27] = system: Beta-lactamase (Acinetobacter baumannii), Q8RLA6 [Y112A]; assay: Inhibition of Acinetobacter baumannii OXA-24 Y112A mutant by spectrophotometric method relative to control; conditions: concentration not given here
[28] = system: Acinetobacter baumannii; assay: Antibacterial activity against Acinetobacter baumannii Ab1 clinical isolate harboring OXA-23 infected in BALB/c mouse pneumonia model assessed as reduction in bacterial burden by measuring bacterial growth at 50 mg,kg, im after 22 hrs co-treatment with imipenem; format: functional
[29] = system: Acinetobacter baumannii; assay: Antibacterial activity against Acinetobacter baumannii ATCC 17978 harboring OXA-23 infected in BALB/c mouse pneumonia model assessed as reduction in bacterial burden by measuring bacterial growth at 50 mg,kg, im after 22 hrs co-treatment with imipenem; format: functional
[30] = system: Acinetobacter baumannii; assay: Inhibition of Acinetobacter baumannii OXA-24 by spectrophotometry relative to control; conditions: concentration not given here
[31] = system: Beta-lactamase (Acinetobacter baumannii), Q8RLA6 [Y112A,M223A]; assay: Inhibition of Acinetobacter baumannii OXA-24 Y112A/M223A mutant by spectrophotometric method relative to control; conditions: concentration not given here
[32] = Inhibition of Acinetobacter baumannii OXA-24 by spectrophotometric method
[33] = system: Acinetobacter baumannii; assay: Antibacterial activity against Acinetobacter baumannii ATCC 17978 harboring OXA-24/40 infected in BALB/c mouse pneumonia model assessed as reduction in bacterial burden by measuring bacterial growth at 50 mg,kg, im after 22 hrs co-treatment with imipenem; format: functional

Sequence of Beta-lactamase (Acinetobacter baumannii), Q8RLA6 [Y112A,M223A] (Q8RLA6 whole entry Y112A/M223A): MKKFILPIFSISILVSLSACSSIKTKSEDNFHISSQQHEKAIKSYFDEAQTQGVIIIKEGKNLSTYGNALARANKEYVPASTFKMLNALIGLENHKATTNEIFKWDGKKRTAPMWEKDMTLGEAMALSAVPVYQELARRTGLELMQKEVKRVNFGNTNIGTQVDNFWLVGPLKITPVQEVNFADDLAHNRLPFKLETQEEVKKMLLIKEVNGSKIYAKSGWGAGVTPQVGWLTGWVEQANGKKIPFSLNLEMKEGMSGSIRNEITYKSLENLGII
Sequence of Beta-lactamase (Acinetobacter baumannii), Q8RLA6 [Y112A] (Q8RLA6 whole entry Y112A): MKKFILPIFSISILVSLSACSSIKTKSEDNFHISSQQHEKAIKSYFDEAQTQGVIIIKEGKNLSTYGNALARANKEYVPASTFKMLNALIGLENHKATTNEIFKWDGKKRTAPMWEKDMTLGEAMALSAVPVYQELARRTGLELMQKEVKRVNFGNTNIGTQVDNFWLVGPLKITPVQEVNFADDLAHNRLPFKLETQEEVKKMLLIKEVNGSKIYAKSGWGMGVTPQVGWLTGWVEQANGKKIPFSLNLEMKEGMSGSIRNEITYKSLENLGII
Sequence of Beta-lactamase TEM (P62593 whole entry): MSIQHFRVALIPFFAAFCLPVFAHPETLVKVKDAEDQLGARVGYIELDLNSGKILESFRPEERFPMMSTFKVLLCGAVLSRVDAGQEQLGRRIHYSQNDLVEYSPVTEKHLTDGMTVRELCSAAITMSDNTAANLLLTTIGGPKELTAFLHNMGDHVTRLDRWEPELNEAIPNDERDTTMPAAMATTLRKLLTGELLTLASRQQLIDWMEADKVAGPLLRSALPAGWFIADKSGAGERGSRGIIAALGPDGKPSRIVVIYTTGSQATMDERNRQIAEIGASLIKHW

SMILES: O=C(NCB(O)O)S(=O)(=O)c1ccnc(-c2nnn[nH]2)c1
Activity [2]: 65% | Ki [3]: 0.8 nM

SMILES: O=C(NCB(O)O)S(=O)(=O)c1cc(-c2nnn[nH]2)cc(C(F)(F)F)c1
Ki [3]: 0.05 nM

SMILES: N#C[C@@H]1CC[C@@H]2CN1C(=O)N2OS(=O)(=O)O
MIC [4]: < 2 µg/mL | MIC [5]: < 2 µg/mL | MIC [6]: < 2 µg/mL | MIC [7]: < 2 µg/mL | MIC [8]: < 2 µg/mL | MIC [9]: < 2 µg/mL

SMILES: CO/N=C(\C(=O)N[C@@H]1C(=O)N2C(C(=O)[O-])=C(C[N+]3(C)CCCC3)CS[C@H]12)c1csc(N)n1 [CEFEPIME]
MIC90 [10]: 16 µg/mL (≈ 33.3 µM) | MIC90 [11]: > 64 µg/mL

SMILES: Cn1cc(/C=C2/C(=O)N3C(C(=O)O)=CS[C@H]23)nn1
MIC [12]: 1 µg/mL (≈ 3.78 µM)

SMILES: Cn1cc[n+](C[C@@]2(C)[C@H](C(=O)[O-])N3C(=O)C[C@H]3S2(=O)=O)n1 [ENMETAZOBACTAM]
MIC90 [16]: 1 µg/mL | MIC90 [17]: 0.5 µg/mL

SMILES: C[C@]1(Cn2ccnn2)[C@H](C(=O)O)N2C(=O)C[C@H]2S1(=O)=O
MIC [18]: 16 µg/mL | MIC [19]: 16 µg/mL

SMILES: CC(=O)N[C@@H](Cc1cccc(C(=O)O)c1)B(O)O
Ki [20]: 0.11 µM

SMILES: CC1=C[C@@H](C#N)N2C[C@@H]1N(OS(=O)(=O)O)C2=O
MIC [21]: 64 µg/mL | MIC [22]: > 64 µg/mL | MIC [25]: 8 µg/mL

SMILES: C[C@]1(COC(=O)Cc2ccc(O)c(O)c2)[C@H](C(=O)O)N2C(=O)/C(=C/c3ccccn3)[C@H]2S1(=O)=O
Activity [26]: 4.5 log10CFU/g | inhibition [27]: 100% | MIC [18]: 1 µg/mL | Activity [28]: 1.7 log10CFU/g | Activity [29]: 4 log10CFU/g | inhibition [30]: 100% | inhibition [31]: 100% | Ki [32]: 0.7 µM | MIC [19]: 1 µg/mL | Activity [33]: 2.5 log10CFU/g

SMILES: CC1=C[C@@H](CO)N2C[C@@H]1N(OS(=O)(=O)O)C2=O
MIC [21]: 8 µg/mL | MIC [22]: 32 µg/mL | MIC [25]: 64 µg/mL

SMILES: C=C(C)C1=C[C@@H](COC)N2C[C@@H]1N(OS(=O)(=O)O)C2=O
MIC [21]: > 64 µg/mL | MIC [22]: > 64 µg/mL | MIC [25]: > 64 µg/mL

SMILES: O=C(NCB(O)O)S(=O)(=O)c1cc(Cl)cc(-c2nnn[nH]2)c1
Ki [3]: 0.2 nM

Further lines, results first:

IC50 [1]: 10.2 µM
SMILES: N[C@H](CN[C@H](CN[C@@H](CC(=O)O)C(=O)O)C(=O)O)C(=O)O

IC50 [1]: 9.3 µM
SMILES: N[C@@H](CN[C@@H](CN[C@@H](CC(=O)O)C(=O)O)C(=O)O)C(=O)O

IC50 [1]: 11.9 µM
SMILES: N[C@H](CN[C@@H](CN[C@@H](CC(=O)O)C(=O)O)C(=O)O)C(=O)O

IC50 [1]: 12.5 µM
SMILES: N[C@@H](CN[C@H](CN[C@@H](CC(=O)O)C(=O)O)C(=O)O)C(=O)O

MIC [13]: > 64 µg/mL | MIC [14]: > 64 µg/mL | MIC [15]: > 64 µg/mL
SMILES: CCN1CCN(C(=O)N[C@@H](C(=O)N[C@@H]2C(=O)N3[C@@H]2SC(C)(C)[C@@H]3C(=O)O)c2ccccc2)C(=O)C1=O [PIPERACILLIN]

IC50 [1]: 11.6 µM
SMILES: N[C@@H](CN[C@@H](CN[C@H](CC(=O)O)C(=O)O)C(=O)O)C(=O)O

MIC [21]: 4 µg/mL | MIC [22]: 2 µg/mL | Ratio [23]: 1 ×10⁴ /M/s | Ratio [24]: 1 ×10³ /M/s | MIC [25]: 8 µg/mL
SMILES: CC1=C[C@@H]2CN(C(=O)N2OS(=O)(=O)O)[C@@H]1C(N)=O

MIC [21]: 4 µg/mL | MIC [22]: 8 µg/mL | MIC [25]: 16 µg/mL
SMILES: CC1=C[C@@H](C(N)=O)N2C[C@@H]1N(OS(=O)(=O)O)C2=O

MIC [21]: 8 µg/mL | MIC [22]: 8 µg/mL | MIC [25]: 64 µg/mL
SMILES: NC(=O)[C@@H]1CC[C@@H]2CN1C(=O)N2OS(=O)(=O)O

From ChEMBL document CHEMBL4402541, “β-Lactamase Inhibitors To Restore the Efficacy of Antibiotics against Superbugs” (J Med Chem, 2020)
